In patent publication US12540143B2, “Methods and compositions for targeted protein degradation” (Ranok Therapeutics (Hangzhou) Co. Ltd., priority 2019, dated 2026):
Counter-ions that a name gives are not always drawn. Like-named read-outs stand apart in the source and are kept apart here.

Test system: MV4-11 cells
Assay: MV4-11 Cytotoxicity Assay
Assay type: cell-based, human
Settings: read-out: MV4-11 cytotoxicity
[1] = Homo sapiens, MV4-11, 72 hr, CCK-8

| SMILES | IC50 [1] [nM] | further results |
| --- | --- | --- |
| Cc1sc2c(c1C)C(c1ccc(Cl)cc1)=NC(CC(=O)N[C@H](C)c1ccc(CN3CCN(Cc4ccc(-n5c(O)nnc5-c5cc(C(C)C)c(O)cc5O)cc4)CC3)cc1)c1nnc(C)n1-2 (stereo in doubt) [Compound 70, 2-((6S)-4-(4-chlorophenyl)-2,3,9-trimethyl-6H-thieno[3,2-f][1,2,4]triazolo[4,3-a][1,4]diazepin-6-yl)-N—((R)-1-(4-((4-(4-(3-(2,4-dihydroxy-5-isopropylphenyl)-5-hydroxy-4H-1,2,4-triazol-4-yl)benzyl)piperazin-1-yl)methyl)phenyl)ethyl)acetamide, trifluoroacetic acid] | < 100 | – |
| Cc1sc2c(c1C)C(c1ccc(Cl)cc1)=NC(CC(=O)N1CCC(Cc3ccc(CN(C)Cc4ccc(-n5c(C(=O)NCC(F)(F)F)nnc5-c5cc(C(C)C)c(O)cc5O)cc4)cc3)CC1)c1nnc(C)n1-2 (stereo in doubt) [Compound 84, (S)-4-(4-(((4-((1-(2-(4-(4-chlorophenyl)-2,3,9-trimethyl-6H-thieno[3,2-f][1,2,4]triazolo[4,3-a][1,4]diazepin-6-yl)acetyl)piperidin-4-yl)methyl)benzyl)(methyl)amino)methyl)phenyl)-5-(2,4-dihydroxy-5-isopropylphenyl)-N-(2,2,2-trifluoroethyl)-4H-1,2,4-triazole-3-carboxamide, trifluoroacetic acid] | < 100 | – |
| CCc1cc(-c2nnc(O)n2-c2ccc(CN3CCN(CC4CCN(CC[C@@H]5N=C(c6ccc(Cl)cc6)c6c(sc(C)c6C)-n6c(C)nnc65)CC4)CC3)cc2)c(O)cc1O [Compound 2, 4-(4-(4-((4-((1-(2-((6S)-4-(4-chlorophenyl)-2,3,9-trimethyl-6H-thieno[3,2-f][1,2,4]triazolo[4,3-a][1,4]diazepin-6-yl)ethyl)piperidin-4-yl)methyl)piperazin-1-yl)methyl)phenyl)-5-hydroxy-4H-1,2,4-triazol-3-yl)-6-ethylbenzene-1,3-diol, trifluoroacetic acid] | 100 to 1000 | – |
| Cc1sc2c(c1C)C(c1ccc(Cl)cc1)=N[C@@H](CC(=O)N1CCC(Cc3ccc(-n4c(O)nnc4-c4cc(C(C)C)c(O)cc4O)cc3)CC1)c1nnc(C)n1-2 [Compound 3, 2-((6S)-4-(4-chlorophenyl)-2,3,9-trimethyl-6H-thieno[3,2-f][1,2,4]triazolo[4,3-a][1,4]diazepin-6-yl)-1-(4-(4-(3-(2,4-dihydroxy-5-isopropylphenyl)-5-hydroxy-4H-1,2,4-triazol-4-yl)benzyl)piperidin-1-yl)ethanone, trifluoroacetic acid] | < 100 | – |
| Cc1sc2c(c1C)C(c1ccc(Cl)cc1)=N[C@@H](CC(=O)N1CCC(CN3CCN(Cc4ccc(-n5c(O)nnc5-c5ccc(O)cc5O)cc4)CC3)CC1)c1nnc(C)n1-2 [Compound 4, 2-((6S)-4-(4-chlorophenyl)-2,3,9-trimethyl-6H-thieno[3,2-f][1,2,4]triazolo[4,3-a][1,4]diazepin-6-yl)-1-(4-((4-(4-(3-(2,4-dihydroxyphenyl)-5-hydroxy-4H-1,2,4-triazol-4-yl)benzyl)piperazin-1-yl)methyl)piperidin-1-yl)ethanone, trifluoroacetic acid] | 100 to 1000 | – |
| CCn1c(=O)/c(=C2\Sc3ccccc3N2C)s/c1=C\c1cccc[n+]1CCNC(=O)C[C@@H]1N=C(c2ccc(Cl)cc2)c2c(sc(C)c2C)-n2c(C)nnc21 [Compound 8] | – | IC50 (72 hr, CCK-8): > 1000 nM |
| CCc1cc(-c2nnc(O)n2-c2ccc(CN3CCN(CC4CCN(C(=O)C[C@@H]5N=C(c6ccc(Cl)cc6)c6c(sc(C)c6C)-n6c(C)nnc65)CC4)CC3)cc2)c(O)cc1O [Compound 10, (S)-2-(4-(4-chlorophenyl)-2,3,9-trimethyl-6H-thieno[3,2-f][1,2,4]triazolo[4,3-a][1,4]diazepin-6-yl)-1-(4-((4-(4-(3-(5-ethyl-2,4-dihydroxyphenyl)-5-hydroxy-4H-1,2,4-triazol-4-yl)benzyl)piperazin-1-yl)methyl)piperidin-1-yl)ethan-1-one hydrochloride] | < 100 | – |
| CCCc1cc(-c2nnc(O)n2-c2ccc(CN3CCN(CC4CCN(C(=O)C[C@@H]5N=C(c6ccc(Cl)cc6)c6c(sc(C)c6C)-n6c(C)nnc65)CC4)CC3)cc2)c(O)cc1O [Compound 11, (S)-2-(4-(4-chlorophenyl)-2,3,9-trimethyl-6H-thieno[3,2-f][1,2,4]triazolo[4,3-a][1,4]diazepin-6-yl)-1-(4-((4-(4-(3-(2,4-dihydroxy-5-propylphenyl)-5-hydroxy-4H-1,2,4-triazol-4-yl)benzyl)piperazin-1-yl)methyl)piperidin-1-yl)ethan-1-one, trifluoroacetic acid] | < 100 | – |
| Cc1sc2c(c1C)C(c1ccc(Cl)cc1)=N[C@@H](CC(=O)N1CCC(CN3CCN(Cc4ccc(-n5c(S)nnc5-c5cc(C(C)C)c(O)cc5O)cc4)CC3)CC1)c1nnc(C)n1-2 [Compound 12, 2-((6S)-4-(4-chlorophenyl)-2,3,9-trimethyl-6H-thieno[3,2-f][1,2,4]triazolo[4,3-a][1,4]diazepin-6-yl)-1-(4-((4-(4-(3-(2,4-dihydroxy-5-isopropylphenyl)-5-mercapto-4H-1,2,4-triazol-4-yl)benzyl)piperazin-1-yl)methyl)piperidin-1-yl)ethanone, trifluoroacetic acid] | < 100 | – |
| Cc1sc2c(c1C)C(c1ccc(Cl)cc1)=N[C@@H](CC(=O)N1CCC(CN3CCN(Cc4ccc(-n5c(C(=O)NCC(F)(F)F)nnc5-c5cc(C(C)C)c(O)cc5O)cc4)CC3)CC1)c1nnc(C)n1-2 [Compound 13, 4-(4-((4-((1-(2-((6S)-4-(4-chlorophenyl)-2,3,9-trimethyl-6H-thieno[3,2-f][1,2,4]triazolo[4,3-a][1,4]diazepin-6-yl)acetyl)piperidin-4-yl)methyl)piperazin-1-yl)methyl)phenyl)-5-(2,4-dihydroxy-5-isopropylphenyl)-N-(2,2,2-trifluoroethyl)-4H-1,2,4-triazole-3-carboxamide] | < 100 | – |
| CCc1cc(-c2nnc(C(=O)NCC(F)(F)F)n2-c2ccc(CN3CCN(CC4CCN(C(=O)C[C@@H]5N=C(c6ccc(Cl)cc6)c6c(sc(C)c6C)-n6c(C)nnc65)CC4)CC3)cc2)c(O)cc1O [Compound 14, 4-(4-((4-((1-(2-((6S)-4-(4-chlorophenyl)-2,3,9-trimethyl-6H-thieno[3,2-f][1,2,4]triazolo[4,3-a][1,4]diazepin-6-yl)acetyl)piperidin-4-yl)methyl)piperazin-1-yl)methyl)phenyl)-5-(5-ethyl-2,4-dihydroxyphenyl)-N-(2,2,2-trifluoroethyl)-4H-1,2,4-triazole-3-carboxamide, trifluoroacetic acid] | – | IC50 (Homo sapiens, MV4-11, 72 h): < 100 nM |
| Cc1cc(-c2nnc(C(=O)NCC(F)(F)F)n2-c2ccc(CN3CCN(CC4CCN(C(=O)C[C@@H]5N=C(c6ccc(Cl)cc6)c6c(sc(C)c6C)-n6c(C)nnc65)CC4)CC3)cc2)c(O)cc1O [Compound 15, 4-(4-((4-((1-(2-((6S)-4-(4-chlorophenyl)-2,3,9-trimethyl-6H-thieno[3,2-f][1,2,4]triazolo[4,3-a][1,4]diazepin-6-yl)acetyl)piperidin-4-yl)methyl)piperazin-1-yl)methyl)phenyl)-5-(2,4-dihydroxy-5-methylphenyl)-N-(2,2,2-trifluoroethyl)-4H-1,2,4-triazole-3-carboxamide, trifluoroacetic acid] | < 100 | – |
